Data on four compounds can be found in paper PMC2963183, “Enzyme Inhibition by Molluscicidal Components of Myristica fragrans Houtt. in the Nervous Tissue of Snail Lymnaea acuminata” (Enzyme Research, 2009).

The test system of assay [1] is acid phosphatase (ACP). To be noted: citrate acid buffer, 37°C; no inhibitor; tissue homogenate supernatant.
Assay [2] concerns alkaline phosphatase (ALP). To be noted: glycine-NaOH buffer, MgCl2, 37°C; no inhibitor; tissue homogenate supernatant.
Assay [3] relates to T1, acetylcholinesterase (AChE).
T1 construct: native, crude nervous tissue homogenate supernatant (1000 g), not purified
Briefly: Ellman assay, […] nm, Lineweaver-Burk. Type of assay: biochemical, Lymnaea acuminata. To be noted: pH 8.0, 25°C; no inhibitor; tissue homogenate supernatant.

Assay [4] concerns the target T2, acid phosphatase (ACP).
T2 construct: native, crude nervous tissue homogenate supernatant (5000 g), not purified; isoenzyme not identified
As to the kind of experiment: 4-nitrophenol release, […] nm. Type of assay: biochemical, Lymnaea acuminata. The following applies: 4-nitrophenyl phosphate, citrate acid buffer, 37°C, 15 min preincubation at 25°C, tissue homogenate supernatant.

Assay [5] addresses T3, alkaline phosphatase (ALP).
T3 construct: native, crude nervous tissue homogenate supernatant (5000 g), not purified; isoenzyme not identified
Briefly: 4-nitrophenol release, […] nm. Type of assay: biochemical, Lymnaea acuminata. To be noted: 4-nitrophenyl phosphate, glycine-NaOH buffer, MgCl2, 37°C, 15 min preincubation at 25°C, tissue homogenate supernatant.

Assay [6] addresses T1, acetylcholinesterase (AChE). As to the kind of experiment: Ellman assay, […] nm. Type of assay: biochemical, Lymnaea acuminata. The following applies: acetylthiocholine iodide, pH 8.0, 25°C, 15 min preincubation; tissue homogenate supernatant; competitive noncompetitive.

As to `O=[N+]([O-])c1ccc(OP(=O)(O)O)cc1` [4-nitrophenyl phosphate], the Km in assay [1] stood at 13.7 µM; in assay [2], 20 µM.
Consider `CC(=O)SCC[N+](C)(C)C` [acetylthiocholine iodide], for which the Michaelis-Menten constant (Km) in assay [3] stood at 317 µM.
For `C=CCc1cc(OC)c2c(c1)OCO2` [myristicin, 4-methoxy-6-(2-propenyl)-1,3-benzodioxole], the IC50 in assay [4] (competitive) is 70 µM; in assay [5] (uncompetitive), 60 µM; in assay [6], 30 µM.
On to `CCCCCCCCCCCCCC(=O)OCC(COC(=O)CCCCCCCCCCCCC)OC(=O)CCCCCCCCCCCCC` [trimyristin, 1,2,3-tritetradecanoylglycerol], for which the half-maximal inhibitory concentration (IC50) in assay [4] (uncompetitive) worked out at 160 µM; in assay [5] (competitive noncompetitive), 180 µM; in assay [6], 110 µM.

In general, Km refers to the concentration of substrate that gives half-maximal velocity. A word on the IC50: it is the midpoint of a concentration-inhibition curve. A high value points to weaker potency in that assay.
